From ChEMBL document CHEMBL1147422, “Synthesis and antitumor activity of 10-substituted benzylidene anthrone” (2004)

What was measured:
[1] = system: P388; assay: Inhibition ratio against P-388 cancer cell growth at a concentration of 10e-8 mol/L; type: functional, Mus musculus
[2] = system: A549; assay: Inhibition ratio against A-549 cancer cell growth at a concentration of 10e-5 mol/L; type: functional, Homo sapiens
[3] = system: P388; assay: Inhibition ratio against P-388 cancer cell growth at a concentration of 10e-6 mol/L; type: functional, Mus musculus
[4] = system: A549; assay: Inhibition ratio against A-549 cancer cell growth at a concentration of 10e-7 mol/L; type: functional, Homo sapiens
[5] = system: P388; assay: Inhibition ratio against P-388 cancer cell growth at a concentration of 10e-5 mol/L; type: functional, Mus musculus
[6] = system: A549; assay: Inhibition ratio against A-549 cancer cell growth at a concentration of 10e-8 mol/L; type: functional, Homo sapiens
[7] = system: A549; assay: Inhibition ratio against A-549 cancer cell growth at a concentration of 10e-4 mol/L; type: functional, Homo sapiens
[8] = system: A549; assay: Inhibition ratio against A-549 cancer cell growth at a concentration of 10e-6 mol/L; type: functional, Homo sapiens
[9] = system: P388; assay: Inhibition ratio against P-388 cancer cell growth at a concentration of 10e-4 mol/L; type: functional, Mus musculus
[10] = system: P388; assay: Inhibition ratio against P-388 cancer cell growth at a concentration of 10e-7 mol/L; type: functional, Mus musculus

O=C1c2ccccc2C(=Cc2ccc(F)cc2)c2ccccc21
Ratio [1]: 5.2
Ratio [2]: 88.2
Ratio [3]: 18.4
Ratio [4]: 18.5
Ratio [5]: 31.4
Ratio [6]: 49.2
Ratio [7]: 96.8
Ratio [8]: 56.5
Ratio [9]: 83.3
Ratio [10]: 10.3

COc1ccccc1C=C1c2ccccc2C(=O)c2ccccc21
Ratio [1]: 32.7
Ratio [2]: 81.7
Ratio [3]: 55.4
Ratio [4]: 86.8
Ratio [5]: 76.1
Ratio [6]: 66.3
Ratio [7]: 89.3
Ratio [8]: 85.7
Ratio [9]: 82.2
Ratio [10]: 47

O=C1c2ccccc2C(=Cc2cccc([N+](=O)[O-])c2)c2ccccc21
Ratio [1]: 30.7
Ratio [2]: 91.8
Ratio [3]: 23.9
Ratio [4]: 7.7
Ratio [5]: 55.8
Ratio [6]: 13.2
Ratio [7]: 96
Ratio [8]: 12.4
Ratio [9]: 89.8
Ratio [10]: 22.1

O=C1c2ccccc2C(=Cc2ccc(O)cc2)c2ccccc21
Ratio [1]: 42.8
Ratio [2]: 87
Ratio [3]: 41.6
Ratio [4]: 88.7
Ratio [5]: 72
Ratio [6]: 60
Ratio [7]: 92.9
Ratio [8]: 87.2
Ratio [9]: 100
Ratio [10]: 27.1

O=C1c2ccccc2C(=Cc2ccccc2Cl)c2ccccc21
Ratio [1]: 0
Ratio [2]: 53
Ratio [3]: 0
Ratio [4]: 6
Ratio [5]: 23.7
Ratio [6]: 5.9
Ratio [7]: 89.9
Ratio [8]: 0.3
Ratio [9]: 58.4
Ratio [10]: 0

Cc1cccc(C=C2c3ccccc3C(=O)c3ccccc32)c1
Ratio [1]: 0
Ratio [2]: 18.2
Ratio [3]: 0
Ratio [4]: 0
Ratio [5]: 7.2
Ratio [6]: 0
Ratio [7]: 93
Ratio [8]: 0
Ratio [9]: 53.3
Ratio [10]: 0

COc1cccc(C=C2c3ccccc3C(=O)c3ccccc32)c1
Ratio [1]: 1
Ratio [2]: 92.5
Ratio [3]: 27.2
Ratio [4]: 38.1
Ratio [5]: 48.2
Ratio [6]: 6.2
Ratio [7]: 95.8
Ratio [8]: 25.1
Ratio [9]: 96
Ratio [10]: 7.1

O=C1c2ccccc2C(=Cc2cccc(Cl)c2)c2ccccc21
Ratio [1]: 10.9
Ratio [2]: 92
Ratio [3]: 11.9
Ratio [4]: 5.7
Ratio [5]: 39.4
Ratio [6]: 12.5
Ratio [7]: 97.1
Ratio [8]: 62.9
Ratio [9]: 89.2
Ratio [10]: 19.3

Cc1ccc(C=C2c3ccccc3C(=O)c3ccccc32)cc1
Ratio [1]: 56.5
Ratio [2]: 91.8
Ratio [3]: 48.6
Ratio [4]: 92.7
Ratio [5]: 42.4
Ratio [6]: 84.7
Ratio [7]: 95.2
Ratio [8]: 90
Ratio [9]: 69
Ratio [10]: 49.3

O=C1c2ccccc2C(=Cc2ccccc2)c2ccccc21
Ratio [1]: 2.7
Ratio [2]: 79.9
Ratio [3]: 17.8
Ratio [4]: 1
Ratio [5]: 56.2
Ratio [6]: 4.4
Ratio [7]: 95.4
Ratio [8]: 9.8
Ratio [9]: 97.8
Ratio [10]: 0

Cc1ccccc1C=C1c2ccccc2C(=O)c2ccccc21
Ratio [1]: 13.1
Ratio [2]: 84.8
Ratio [3]: 24.9
Ratio [4]: 0
Ratio [5]: 42.4
Ratio [6]: 5.7
Ratio [7]: 90.9
Ratio [8]: 18.5
Ratio [9]: 84.1
Ratio [10]: 8

COc1ccc(C=C2c3ccccc3C(=O)c3ccccc32)cc1
Ratio [1]: 75.5
Ratio [2]: 84.7
Ratio [3]: 76.5
Ratio [4]: 85.4
Ratio [5]: 72.5
Ratio [6]: 84.8
Ratio [7]: 90
Ratio [8]: 87
Ratio [9]: 76.7
Ratio [10]: 64.3

O=C1c2ccccc2C(=Cc2ccc(Cl)cc2)c2ccccc21
Ratio [1]: 4.4
Ratio [2]: 87.3
Ratio [3]: 3.9
Ratio [4]: 33.6
Ratio [5]: 36
Ratio [6]: 41.7
Ratio [7]: 96
Ratio [8]: 41.9
Ratio [9]: 70
Ratio [10]: 2.8

O=C1c2ccccc2C(=Cc2ccccc2O)c2ccccc21
Ratio [1]: 38.5
Ratio [2]: 94.8
Ratio [3]: 65.8
Ratio [4]: 83
Ratio [5]: 88.2
Ratio [6]: 85.2
Ratio [7]: 96.3
Ratio [8]: 89.3
Ratio [9]: 95.6
Ratio [10]: 44.9

COc1ccc(C=C2c3ccccc3C(=O)c3ccccc32)cc1OC
Ratio [1]: 50.9
Ratio [2]: 92.8
Ratio [3]: 56
Ratio [4]: 90.6
Ratio [5]: 80.2
Ratio [6]: 81.7
Ratio [7]: 95.7
Ratio [8]: 87
Ratio [9]: 95.7
Ratio [10]: 53.6
